The text below walks through data of patent US10655183B2, “Carcinoma diagnosis and treatment based on ODC1 genotype” (THE ARIZONA BOARD OF REGENTS ON BEHALF OF THE UNIVERSITY OF …, priority 2014, dated 2020).

Data set [1] relates to humans. The following applies: low doses of 0.4 g/m^2/day; cited from earlier work.
For data set [2], the system named is rat-tumor model. The note with it: DFMO infusion; cited from earlier work.
Data set [3] relates to ODC1 +263 T promoter/intron 1 luciferase plasmid. The experiment in a line: ODC1 promoter/intron 1 luciferase reporter transfection in HCT116 cells. It counts as cell-based, human. The note with it: 2 μM NSC176327, 24 h, normalized to time-matched DMSO. As for the experimental part: (§1) HCT116 cells were transfected in 24-well plates. Cells were seeded at 0.1×10^6 cells/well 24 h prior transfection. Each well was transfected with 0.25 μg of each plasmid and 0.025 μg of Renilla-TK plasmid using 2.5 μL Lipofectamine 2000 reagent (Invitrogen) according to the manufacturer's instructions. The Renilla-TK plasmid was purchased from Promega and used as a transfection efficiency control in all promoter-reporter transfection experiments. For the overexpression experiments, ODC1 pGL3-Basic or Enhancer plasmids were co-transfected with the corresponding plasmid: pcDNA 3.0 empty vector, pcDNA3-c-MYC expression vector (Ricci et al., 2004) (Addgene plasmid 16011), full-length pN3-Sp1FL (Sapetschnig et al., 2004) (Addgene plasmid 24543), pN3-empty control (Addgene plasmid 24544), N-terminal mutate pPac-Sp1 (Courey and Tjian, 1988) (Addgene plasmid 12095) and pPac0 empty vector (Courey and Tjian, 1988) (Addgene plasmid 12094). After 5 h of transfection, the medium was replaced with fresh normal medium in the absence of antibiotics. […] Dual luciferase activities were measured using a Turner Designs TD-20/20 luminometer, as described by the manufacturer, and presented as relative luciferase units. Experiments were performed in triplicate, repeated at least twice, and analyzed for statistical significance (P<0.05) using two-sample t-tests (Microsoft Excel). […]
A general note: Reporter assays use an easily measured gene product as a stand-in for the process of interest.

For data set [4], the system named is ODC1 +263 G promoter/intron 1 luciferase plasmid. The description is as above. It counts as cell-based, human. The note with it: 2 μM NSC176327, 24 h, normalized to time-matched DMSO. As for the experimental part: as §1
For data set [5], the system named is HCT116 colorectal cancer cells. Put plainly: HCT116 24 h IC50 and cell viability. The data set is classed as cell-based, human.
In data set [6] the test system is COX. The note with it: cited from earlier work.
Data set [7] deals with prostoglandin E2 (PGE2) levels in flat mucosa. The following applies: 300 mg/day, one month; cited from earlier work.
Data set [8] has as its system patients. The following applies: human, in vivo; cited from earlier work.
For data set [9] the following is noted: cited from earlier work.

As a reminder, the IC50 is the point on the concentration scale where inhibition reaches its midpoint.

As for `NCCCC(N)(C(=O)O)C(F)F` (racemic) [DFMO, 2-(difluoromethyl)-dl-ornithine], in data set [1], the toxicity entry is given as “relatively non-toxic”. The “decrease in tumor putrescine levels” value in data set [2] is given as 90%.

`COc1ccc2c(c1)c1c(C)c3cnccc3c(C)c1n2CCCN` [NSC176327]: the “reduction of ODC1-luciferase reporter expression” value stood at 47.5% in [3] and 43.6% in data set [4]. Further, half-maximal inhibition in data set [5] (IC50) required 2000 nM.

For the molecule `CC1=C(CC(=O)O)c2cc(F)ccc2/C1=C\c1ccc(S(C)(=O)=O)cc1` [Sulindac sulfone], the COX-inhibitory activity entry in data set [6] is on record as “lacks COX-inhibitory activity”.

On to `CC(C)Cc1ccc(C(C)C(=O)O)cc1` (centres unmarked) [ibuprofen], for which the “PGE2 levels in flat mucosa” value in data set [7] is “significant decrease”.

For the molecule `CC1=C(CC(=O)O)c2cc(F)ccc2/C1=C\c1ccc([S+](C)[O-])cc1` (centres unmarked) [sulindac, (Z)-5-fluoro-2-methyl-1-((4 (methylsulfinyl)phenyl)methylene) 1H-indene-3-acetic acid], in data set [8], the “patients with mild gastrointestinal effects” value was around 20%; the “patients with skin rash and pruritus” value is reported as 5%. Moreover, in data set [9] (oral administration), the “fraction of the drug absorbed” value is reported as “about 90%”. Also, the “time to peak plasma levels” value in [9] (oral, fasting patients) is “about 2 h”.
